Test results published in ChEMBL document CHEMBL3868638, “Potential Treatment of Cognitive Impairment in Schizophrenia by Phosphodiesterase 2 (PDE2) Inhibitors” (ACS Med Chem Lett, 2017).
Calls of active or inactive are those of the source. No cut-off for these calls is given here.

species on record: Homo sapiens; experiment: (§1) Inhibition of human PDE2 using FAM-labeled cAMP as substrate after 60 mins in presence of cGMP by florescence polarization assay

Q: Which inhibition does the source give for `COc1ccc(Cc2nc(O)c3c(C)nc([C@@H](CCCc4ccccc4)[C@@H](C)O)n3n2)cc1OC` here?
A: Its inhibition is “Active”.

molecular target: not listed separately; experiment: as §1

Q: Which Ki does the source give for `C[C@@H](NC(=O)c1cc(=O)[nH]c(N(C)C)n1)c1ccc(SC(F)(F)F)cc1` here?
A: Its Ki is 320 to 820 pM.

Q: For `CC(C)[C@@H](NC(=O)c1cc(=O)[nH]c(N(C)C)n1)c1ccc(SC(F)(F)F)cc1`, which Ki is on record?
A: The Ki was 370 to 5100 pM.

Q: For `CC[C@@H](NC(=O)c1cc(=O)[nH]c(N(C)C)n1)c1ccc(SC(F)(F)F)cc1`, which Ki is on record?
A: Its Ki is 690 to 5060 pM.

Q: Which Ki does the source give for `CN(C)c1nc(C(=O)NC2(c3ccc(C(F)(F)F)c(F)c3)CC2)cc(=O)[nH]1` here?
A: The Ki was 900 to 960 pM.

Q: For `C[C@@H](NC(=O)c1cc(=O)[nH]c(N(C)C)n1)c1ccc(OC(F)(F)F)c(Cl)c1`, which Ki is on record?
A: The Ki was 1600 pM.

Q: Which Ki does the source give for `CN(C)c1nc(C(=O)N[C@@H](c2ccc(OC(F)(F)F)c(F)c2)C(C)(C)O)cc(=O)[nH]1` here?
A: Its Ki is 120 pM.
